Where two headings read alike, the source gives them in different places. No end group written: not given here.
What was measured:
[1] = tested on: E. aerogenes LMG 02094; conditions: MIC of GNP alone
Method: (§1) The test of synergistic effect was processed by conducting standard chequerboard broth microdilution assays. […] Row 11 are used as growth control with no peptide was included, while row 12 with MHB medium-only wells was included as a sterility control as referred before. 50 uL fresh bacterial suspension was added to well 1-11 and final volume of each well on the plate is 100 uL.
(§2) The test of synergistic effect was processed as method 1.4.
(§3) To determine whether the combination therapy is additive, synergistic or antagonistic, fractional inhibitory concentration (FIC) indices were calculated. FICI=FICa+FICb=MICac/MICa+MICbc/MICb. The MICa/MICb is the MIC of compound A/B alone. MICac is the MIC of compound A in combination with compound B and MICbc is the MIC of compound B when it was combination with compound A. […]. FICa is FIC of compound A while FICb is FIC of compound B. The FICI is interpreted as follows: synergistic, FICI≤0.5; additive, 0.5<FICI<1; indifferent, 1<FICI<2; antagonistic, FICI>2.

[2] = tested on: K. pneumoniae LMG20218; conditions: for MICb: MIC of GNP alone
Method: as §1, §2, §3

[3] = tested on: P. aeruginosa LMG 6395; conditions: for MICb: MIC of GNP alone; for MICbc: MIC of GNP in combination with vancomycin at the MICac concentration; for MICac: MIC of vancomycin in combination with the GNP at the MICbc concentration
Method: as §1, §2, §3

[4] = tested on: E. coli LMG15862; conditions: for MICb: MIC of GNP alone; for MICbc: MIC of GNP in combination with vancomycin at the MICac concentration; for MICac: MIC of vancomycin in combination with the GNP at the MICbc concentration
Method: as §1, §2, §3

[5] = tested on: A. baumannii LMG01041; conditions: for MICb: MIC of GNP alone
Method: as §1, §2, §3

[6] = tested on: A. baumannii LMG01041; assay type: cell-based, Acinetobacter baumannii; conditions: for MICb: MIC of GNP alone
Source text: (§4) The test of synergistic effect was processed by conducting standard chequerboard broth microdilution assays. Nisin (Drug X) was loaded two fold serially diluted from row 1 to 10 in X-axis while GNPs (Drug Y) were loaded in eight two fold serially diluted concentrations from line A to H in Y-axis (FIG. 1). The original concentrations of peptides were MICs of each. Row 11 are used as growth control with no peptide was included, while row 12 with MHB medium-only wells was included as a sterility control as referred before. 50 uL fresh bacterial suspension was added to well 1-11 and final volume of each well on the plate is 100 uL.
as §3

[7] = tested on: P. aeruginosa LMG 6395; assay type: cell-based, Pseudomonas aeruginosa; conditions: for MICb: MIC of GNP alone; for MICbc: MIC of GNP when used with the MICac concentration of nisin; for MICac: MIC of nisin in combination with the GNP at the MICbc concentration
Source text: as §4, §3

[8] = tested on: E. coli LMG15862; assay type: cell-based, Escherichia coli; conditions: for MICb: MIC of GNP alone; for MICbc: MIC of GNP when used with the MICac concentration of nisin; for MICac: MIC of nisin in combination with the GNP at the MICbc concentration
Source text: as §4, §3

[9] = tested on: K. pneumoniae LMG20218; assay type: cell-based, Klebsiella pneumoniae; conditions: for MICb: MIC of GNP alone
Source text: as §4, §3

[10] = tested on: E. aerogenes LMG 02094; assay type: cell-based, Enterobacter aerogenes; conditions: MIC of GNP alone
Source text: as §4, §3

[11] = MIC of GNP in combination with vancomycin at the MICac concentration
[12] = MIC of vancomycin in combination with the GNP at the MICbc concentration
[13] = MIC of GNP when used with the MICac concentration of nisin
[14] = MIC of nisin in combination with the GNP at the MICbc concentration

RIRKRIKKWLR-NH2 [GNP8-4]
MICb [1]: >256 µM
MICb [2]: >256 µM
MICb [3]: 16 µM
MICbc [3]: 8 µM
MICac [3]: 4 µM
MICb [4]: 16 µM
MICbc [4]: 2 µM
MICac [4]: 4 µM
MICb [5]: >256 µM
MICb [6]: >256 µM
MICb [7]: 16 µM
MICbc [7]: 4 µM
MICac [7]: 2.25 µM
MICb [8]: 16 µM
MICbc [8]: 2 µM
MICac [8]: 3 µM
MICb [9]: >256 µM
MICb [10]: >256 µM

RIVQRIKKWL-NH2 [GNP8-1]
MICb [1]: >256 µM
MICb [2]: 64 µM
MICbc [2, 11]: 8 µM
MICac [2, 12]: 16 µM
MICb [3]: 16 µM
MICbc [3]: 2 µM
MICac [3]: 16 µM
MICb [4]: 32 µM
MICbc [4]: 4 µM
MICac [4]: 8 µM
MICb [5]: 128 µM
MICbc [5, 11]: 16 µM
MICac [5, 12]: 1 µM
MICb [6]: 128 µM
MICbc [6, 13]: 16 µM
MICac [6, 14]: 0.375 µM
MICb [7]: 16 µM
MICbc [7]: 4 µM
MICac [7]: 4.5 µM
MICb [8]: 32 µM
MICbc [8]: 4 µM
MICac [8]: 1.5 µM
MICb [9]: 64 µM
MICbc [9, 13]: 1 µM
MICac [9, 14]: 3 µM
MICb [10]: >256 µM

RIVQRIKKWR-NH2 [GNP8-6]
MICb [1]: >256 µM
MICb [2]: >256 µM
MICb [3]: >256 µM
MICb [4]: 256 µM
MICbc [4]: 16 µM
MICac [4]: 8 µM
MICb [5]: >256 µM
MICb [6]: >256 µM
MICb [7]: >256 µM
MICb [8]: 256 µM
MICbc [8]: 64 µM
MICac [8]: 6 µM
MICb [9]: >256 µM
MICb [10]: >256 µM

Reference: patent US20200368315A1, “ANTIMICROBIAL PEPTIDES AND ADMIXTURES THEREOF SHOWING ANTIMICROBIAL ACTIVITY AGAINST GRAM-NEGATIVE PATHOGENS” (priority 2017, published 2020)
